# Legend:
# [1] = Steady-state trough serum vancomycin concentration in DFI patients and nondiabetic patients with pneumonia; type: in vivo, human; settings: 1g q12h; for Trough Concentration of vancomycin: mean ± SD, SD
# Experimental: Clinical samples were collected at Air Force General Hospital, PLA. […] Human blank serum was obtained from healthy blood donors not using vancomycin (Air Force General Hospital, PLA.). The study was approved by the hospital ethics committee. Every patient was given a sufficient description of the study and signed an informed consent prior to the study.
# The pretreatment followed for all samples was 10 μL of the IS was added to 20 μL of the standard and unknown serum samples and mixed vigorously for 20 s. Five-hundred microliters of acetonitrile was added, vortexed for 1 min, and centrifuged for 6 min at 12,000 rpm. After transferring the supernatant to a fresh centrifuge tube, it was evaporated to dryness under a stream of nitrogen at room temperature. Two-hundred microliters of mobile phase was added to the resulting residue and vortexed for 1 min; 100 μL was analyzed.
# Fifty diabetes mellitus type 2 patients with known or suspected Gram-positive DFI (Wagner score grade 3/4, equivalent to Texas classification of at least B3), and 50 nondiabetic patients with pneumonia requiring antibiotic therapy from 2014 to 2016 were included. […] The estimated ClCr was calculated from serum creatinine using the Cockcroft-Gault formula [29]. CrCl = (140-age in years) × body weight in kg/(serum creatinine in […]) × 0.85 for females). Statistical analysis was performed by SPSS 25.0.
# [2] = Stability of vancomycin in serum under various storage conditions (QC samples, HPLC-Q-trap-MS); type: in vitro ADME, human; settings: serum at 4 °C and 25 °C for 24 h, after three freezing and thawing cycles and stored at −80 °C for 30 days; three concentrations
# Experimental: The IS working solution was diluted with deionized water to give a final concentration of 100 ng/mL. Quality control (QC) samples were prepared in 100 μL of blank serum by adding 10 μL of serially diluted solutions of the substance to determine the limit of quantification, as well as 2 ng/mL (low), 20 ng/mL (medium), and 400 ng/mL (high) concentrations. The L, M, and H of QCs were analyzed at least in duplicate. All solutions were stored at −20 °C and brought to room temperature before use.
# The chromatographic separation was performed on an Agilent ZORBAX SB-C18 (4.6 × 150 mm, 5 μm). The mobile phase consisted of water (containing 0.1% formic acid, v/v) and acetonitrile (containing 0.1% formic acid, v/v) and the flow rate was set at 0.5 mL/min. An isocratic elution was performed with 30% of acetonitrile. The total run time was 8 min. The injection volume was 10 μL. […]
# The pretreatment followed for all samples was 10 μL of the IS was added to 20 μL of the standard and unknown serum samples and mixed vigorously for 20 s. […] Two-hundred microliters of mobile phase was added to the resulting residue and vortexed for 1 min; 100 μL was analyzed.
# For the bench-top stability during handing, QC samples were prepared and kept room temperature (25 °C) for 6 h. […] Stability of sample in autosampler was determined by analyzing the targets after kept in an autosampler at room temperature for 12 h.
smiles,measurement,setting,value
"CN[C@H](CC(C)C)C(=O)N[C@H]1C(=O)N[C@@H](CC(N)=O)C(=O)N[C@H]2C(=O)N[C@H]3C(=O)N[C@H](C(=O)N[C@H](C(=O)O)c4cc(O)cc(O)c4-c4cc3ccc4O)[C@H](O)c3ccc(c(Cl)c3)Oc3cc2cc(c3O[C@@H]2O[C@H](CO)[C@@H](O)[C@H](O)[C@H]2O[C@H]2C[C@](C)(N)[C@H](O)[C@H](C)O2)Oc2ccc(cc2Cl)[C@H]1O [vancomycin, Vancomycin]",Trough Concentration of vancomycin,"[1]; DFI group (n = 50), type 2 diabetes patients",8.20 ± 2.83 µg/mL
same,"Trough concentration of vancomycin, range",[1]; DFI patients (n = 50),4.80 to 14.2 µg/mL
same,Trough Concentration of vancomycin,"[1]; Nondiabetic group (n = 50), pneumonia patients",15.8 ± 5.43 µg/mL
same,"Trough concentration of vancomycin, range",[1]; nondiabetic patients (n = 50),8.60 to 19.5 µg/mL
same,Stability in serum (in words),[2],stable

# Source: paper PMC6278353 (Molecules, 2018)
